Laboratory results published in patent EP3906926A1, “PROLINE HYDROXYLASE INHIBITORS FOR USE IN THE SKELETAL MUSCLE REGENERATION” (Policlinico San Donato S.p.A.- Istituto di Ricovero e Cura …, priority 2020, dated 2021).

System: C57Bl/6N mice
Test: Cardiotoxin-induced muscle regeneration in mice
Format: in vivo
Conditions: single i.p. injection 10 mg/kg one day before CTX injury; 7 days after injury; laminin staining; vs saline
Experimental: Experiments on muscle regeneration were conducted on 8-10 weeks old male C57Bl/6N mice, matched for weight, and purchased from Charles River Laboratories (Calco, Italy).
Cardiotoxin (CTX, from Naja mossambica, Latoxan, Portes-les-Valence, France, http://www.latoxan.net/) was dissolved in sterile saline to a final concentration of 10 µM. Mice were anesthetized by isofluorane inhalation and hindlimbs were shaved and cleaned with alcohol. Tibialis anterior (TA) muscles were injected with 45 µl of CTX with a 30-gauge needle, with 15 micro-injections of 3 µl CTX each in the mid-belly of the muscle to induce a homogeneous damage. The TA muscles of the contralateral hindlimbs were injected with a saline solution.
DMSO, diluted at 2% in saline solution, was inoculated by i.p. injection to control mice. […] Mice were sacrificed seven days after cardiotoxin treatment.
Briefly, TA muscles were frozen in liquid nitrogen-cooled isopentane and mounted in Killik embedding medium (Bio-optica). Transverse muscle sections (7 µm) were cryosectioned from the midbelly of each muscle. Sections were stained with Hematoxylin (Bio-optica)/Eosin (Merck) to reveal general muscle architecture. […] Images were acquired using Axio Lab.A1 (Zeiss) and quantified with ImageJ v1.49o software.

**Q.** Which results are given for `Cc1nc(C(=O)NCC(=O)O)c(O)c2ccc(Oc3ccccc3)cc12` [FG-4592, Roxadustat]?
**A.** enhancement of cross-sectional area (CSA) of regenerating myofibers: 25%; increase of minimal Feret diameter of regenerating myofibers: 8%
